One test relates to CHO. The test is described as follows: Inhibition of [125I]RANTES association with CCR5 expressed in CHO cells at 100 nM. It counts as functional, cell-based. As to conditions: Cricetulus griseus.
The target in test [1] is T1, Tumor necrosis factor receptor superfamily member 16 (Homo sapiens, UniProt P08138).
T1 sequence (P08138 whole entry): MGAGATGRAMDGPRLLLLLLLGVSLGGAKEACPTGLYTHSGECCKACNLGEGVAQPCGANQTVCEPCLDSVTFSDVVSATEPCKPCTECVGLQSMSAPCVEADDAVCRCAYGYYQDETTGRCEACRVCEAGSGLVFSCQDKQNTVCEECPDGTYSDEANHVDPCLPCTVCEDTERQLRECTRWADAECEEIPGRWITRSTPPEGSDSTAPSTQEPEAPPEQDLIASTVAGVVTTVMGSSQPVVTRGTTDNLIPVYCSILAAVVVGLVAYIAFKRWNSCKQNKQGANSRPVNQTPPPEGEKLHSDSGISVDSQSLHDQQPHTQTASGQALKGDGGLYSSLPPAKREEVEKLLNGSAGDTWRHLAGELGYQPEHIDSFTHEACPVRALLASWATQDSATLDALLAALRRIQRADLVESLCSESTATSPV
The test can be described thus: Competitive binding against Nerve growth factor to p75-NGF receptor in PC12 cells. It counts as cell-based, PC-12.

Test [2] concerns the target T2, High affinity nerve growth factor receptor (Homo sapiens, UniProt P04629). The test can be described thus: Inhibition of NGF-stimulated Trk A in PC12 cells. It counts as cell-based, PC-12.
Test [3] deals with T2, High affinity nerve growth factor receptor. The test can be described thus: Inhibition of NGF-stimulated Trk A.
For a further test, the species on record is Homo sapiens. The test is described as follows: cells.
The target in test [4] is T3, Proto-oncogene tyrosine-protein kinase Src (Homo sapiens, UniProt P12931). The test can be described thus: Inhibition of binding to Src SH2 domain. It counts as functional.
T3 sequence (P12931 2-536 limits assumed): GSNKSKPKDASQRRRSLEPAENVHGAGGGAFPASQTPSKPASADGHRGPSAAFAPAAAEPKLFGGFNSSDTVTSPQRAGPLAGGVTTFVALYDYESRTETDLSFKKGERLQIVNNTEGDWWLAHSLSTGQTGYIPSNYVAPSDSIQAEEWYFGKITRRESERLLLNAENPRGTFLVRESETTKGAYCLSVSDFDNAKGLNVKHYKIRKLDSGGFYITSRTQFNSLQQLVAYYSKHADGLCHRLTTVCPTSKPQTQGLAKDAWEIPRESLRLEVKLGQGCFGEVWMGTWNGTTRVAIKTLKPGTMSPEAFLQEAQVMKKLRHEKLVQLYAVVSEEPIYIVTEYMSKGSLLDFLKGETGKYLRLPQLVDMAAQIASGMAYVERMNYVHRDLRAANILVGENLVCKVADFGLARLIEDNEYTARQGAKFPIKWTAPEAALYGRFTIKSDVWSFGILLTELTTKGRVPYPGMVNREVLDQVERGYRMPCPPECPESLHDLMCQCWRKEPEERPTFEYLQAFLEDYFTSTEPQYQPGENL
Test [5] in a line: Inhibition of thyroid-hormone induced bone resorption. It counts as functional.
A short description of test [6]: Selective inhibition of Src SH2 domain over ZAP-70 SH2 domain. It counts as functional.
Test [7] in a line: Inhibition of Interleukin-1 alpha binding to Interleukin-1 receptor.
The target of another test is Phosphodiesterase 1 (Homo sapiens, UniProt P54750+Q01064+Q14123). The test is described as follows: Inhibition of calmodulin-dependent PDE(3',5'-phosphodiesterase). It counts as functional.
The target in test [8] is Apoptosis regulator Bcl-2 (Homo sapiens, UniProt P10415). The test is described as follows: Inhibitory activity against Bcl-2 functioning. It counts as functional.
Chain of Apoptosis regulator Bcl-2 (P10415 whole entry): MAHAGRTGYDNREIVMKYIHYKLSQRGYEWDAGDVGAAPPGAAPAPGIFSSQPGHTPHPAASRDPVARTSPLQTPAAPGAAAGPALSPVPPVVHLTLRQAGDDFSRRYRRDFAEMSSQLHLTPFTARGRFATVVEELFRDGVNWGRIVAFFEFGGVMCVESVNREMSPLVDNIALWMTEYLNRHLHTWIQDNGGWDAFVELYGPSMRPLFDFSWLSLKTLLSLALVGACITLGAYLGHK
The next test relates to HL-60. The test is described as follows: Percent cell death of cultured HL60 human leukemia cells at dose of 50 uM. It counts as functional.
Test [9] addresses Nitric oxide synthase, inducible (Homo sapiens, UniProt P35228). The test is described as follows: Binding against the partially purified human Inducible nitric oxide synthase.
The subject of another test is Rattus norvegicus. The test is described as follows: The compound was tested in vivo for suppressing LPS-stimulated plasma NOx production in rats. It counts as functional.
Test [10] concerns the target T3, Proto-oncogene tyrosine-protein kinase Src. The test is described as follows: Inhibition of Src protein tyrosine kinase.
The species entered for another test is Oryctolagus cuniculus. The test is described as follows: Inhibition of the absorption of dentine slices by rabbit osteoclasts. It counts as functional.
Test [11] has as its target T4, Growth factor receptor-bound protein 2 (Homo sapiens, UniProt P62993). The test can be described thus: Inhibition of Growth factor receptor bound protein 2 SH2-domain binding.
Target sequence in this assay (P62993 whole entry, the tested form may be a part): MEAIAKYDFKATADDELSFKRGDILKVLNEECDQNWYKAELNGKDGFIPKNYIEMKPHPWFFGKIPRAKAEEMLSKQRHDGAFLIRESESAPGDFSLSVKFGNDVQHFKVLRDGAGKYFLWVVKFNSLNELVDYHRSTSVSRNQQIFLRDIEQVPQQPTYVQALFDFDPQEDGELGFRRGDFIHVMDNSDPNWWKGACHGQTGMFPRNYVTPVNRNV
For test [12], the target named is T4, Growth factor receptor-bound protein 2. The test can be described thus: Inhibition of c-Met interaction with Grb2 SH2 domain in Okajima (human gastric carcinoma) cells at 30 nM. It counts as functional. As to conditions: Stomach.
Target sequence in this assay (P62993 whole entry, looked up, the tested form may be a part): as the sequence (P62993 whole entry, the tested form may be a part) above

The source of these data is ChEMBL document CHEMBL1135909, “Inhibition of protein-protein association by small molecules: approaches and progress” (J Med Chem, 2002).

Bounds are passed on as bounds.

T2 sequence (P04629 whole entry): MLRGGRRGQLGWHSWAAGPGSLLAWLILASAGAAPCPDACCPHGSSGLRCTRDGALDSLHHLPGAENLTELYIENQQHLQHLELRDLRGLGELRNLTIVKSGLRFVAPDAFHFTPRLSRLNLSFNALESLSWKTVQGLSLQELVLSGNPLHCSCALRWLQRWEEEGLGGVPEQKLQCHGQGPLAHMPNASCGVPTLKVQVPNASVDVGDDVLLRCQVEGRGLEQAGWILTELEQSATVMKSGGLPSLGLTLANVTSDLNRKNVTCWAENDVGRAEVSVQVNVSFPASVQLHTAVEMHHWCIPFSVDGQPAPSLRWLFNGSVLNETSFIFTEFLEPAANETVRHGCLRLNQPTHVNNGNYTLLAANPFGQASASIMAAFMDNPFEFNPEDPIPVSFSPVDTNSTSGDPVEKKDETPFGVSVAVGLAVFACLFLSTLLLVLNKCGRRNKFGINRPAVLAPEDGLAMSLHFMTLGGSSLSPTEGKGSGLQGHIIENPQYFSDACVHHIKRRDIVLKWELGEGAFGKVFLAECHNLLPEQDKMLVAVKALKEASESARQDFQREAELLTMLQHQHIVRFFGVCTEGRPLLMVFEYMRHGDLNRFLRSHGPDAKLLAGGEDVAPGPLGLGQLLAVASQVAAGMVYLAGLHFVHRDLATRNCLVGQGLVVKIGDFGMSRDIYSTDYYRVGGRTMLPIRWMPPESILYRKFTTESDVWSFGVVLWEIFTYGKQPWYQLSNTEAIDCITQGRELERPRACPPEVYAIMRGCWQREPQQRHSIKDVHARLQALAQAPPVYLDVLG
Chain of Nitric oxide synthase, inducible (P35228 whole entry): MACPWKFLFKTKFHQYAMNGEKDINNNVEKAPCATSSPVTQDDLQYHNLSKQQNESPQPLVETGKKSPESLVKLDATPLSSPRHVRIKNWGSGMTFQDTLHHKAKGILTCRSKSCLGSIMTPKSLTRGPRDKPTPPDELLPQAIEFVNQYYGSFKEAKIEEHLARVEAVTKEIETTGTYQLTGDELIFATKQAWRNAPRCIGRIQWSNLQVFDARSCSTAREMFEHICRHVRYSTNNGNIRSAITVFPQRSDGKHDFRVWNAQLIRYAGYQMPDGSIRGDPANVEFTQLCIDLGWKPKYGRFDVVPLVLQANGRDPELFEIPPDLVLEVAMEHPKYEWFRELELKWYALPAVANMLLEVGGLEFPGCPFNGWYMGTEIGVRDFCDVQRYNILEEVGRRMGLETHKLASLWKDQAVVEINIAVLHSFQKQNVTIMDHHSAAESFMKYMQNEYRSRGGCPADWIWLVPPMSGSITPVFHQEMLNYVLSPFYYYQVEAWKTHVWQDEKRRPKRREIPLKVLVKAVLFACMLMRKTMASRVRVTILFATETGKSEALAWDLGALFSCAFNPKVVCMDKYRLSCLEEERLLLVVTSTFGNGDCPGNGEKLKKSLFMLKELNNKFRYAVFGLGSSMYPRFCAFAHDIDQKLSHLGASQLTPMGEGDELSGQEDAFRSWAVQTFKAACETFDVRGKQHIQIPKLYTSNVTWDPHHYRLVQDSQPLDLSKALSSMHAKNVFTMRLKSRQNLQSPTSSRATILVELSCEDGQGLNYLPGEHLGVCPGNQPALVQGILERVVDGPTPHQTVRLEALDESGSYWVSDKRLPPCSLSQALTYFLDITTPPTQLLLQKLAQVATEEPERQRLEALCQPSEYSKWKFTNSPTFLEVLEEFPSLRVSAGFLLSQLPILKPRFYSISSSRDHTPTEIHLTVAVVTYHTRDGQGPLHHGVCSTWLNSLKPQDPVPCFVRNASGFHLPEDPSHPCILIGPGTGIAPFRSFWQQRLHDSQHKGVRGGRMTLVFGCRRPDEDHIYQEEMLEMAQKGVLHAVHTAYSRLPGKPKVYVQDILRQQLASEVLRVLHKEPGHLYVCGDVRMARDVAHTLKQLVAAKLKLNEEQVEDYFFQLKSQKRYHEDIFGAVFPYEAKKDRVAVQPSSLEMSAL

For `Cc1ccc(-c2ccc3c(c2)C=C(C(=O)Nc2ccc(C[N+](C)(C)C4CCOCC4)cc2)CCC3)cc1`, in the test on CHO, the half-inhibitory concentration (IC50) (in general, the concentration that inhibits the measured activity by half) amounted to 1.4 nM. This lies in the single-digit nanomolar range.
For `O=C1c2cccc3cc([N+](=O)[O-])cc(c23)C(=O)N1NCCO`, the IC50 in test [1] stood at 3720 nM; in test [2], 3720 nM; in [3], 5880 nM.
Turning to `O=C(CC1CNCCN1c1cc(Cl)nc(-n2ccnc2)n1)NCc1ccc2c(c1)OCO2` (stereo not drawn), the half-maximal inhibitory concentration (IC50) in the test “Inhibitory activity” came out at 1.1 nM. This counts as single-digit nanomolar.
`CC(=O)N[C@@H](Cc1ccccc1)C(=O)N[C@H]1CCCNC(=O)[C@H](CCCN=C(N)N)NC(=O)[C@H](Cc2c[nH]c3ccccc23)NC(=O)[C@@H](CC2CCCCC2)NC(=O)[C@@H]2CCCN2C1=O` returned an IC50 in the test listed under Homo sapiens of 20 nM.
With `CC(=O)NC(Cc1ccc(C(=O)O)c(C=O)c1)C(=O)N[C@H]1CCCCc2cc(OCC3CCCCC3)c(C(N)=O)cc21` (stereo partly drawn), the half-inhibitory concentration (IC50) is 5500 nM in [4], 42900 nM in [5] and 60000 nM in [6].
As to `CCCCCCOc1ccc(CCOc2cc(OCCCN)ccc2C(=O)NC(c2ccccc2)c2ccccc2)cc1`, in test [7], the IC50 is < 10000 nM.
On Phosphodiesterase 1, `CCc1cc(-c2ccc(OCC(=O)O)cc2C(C)C)ccc1-c1cccc(Cc2ccc3ccccc3c2)c1` had an IC50 of 20 nM.
Consider `CCCCCCOc1cccc(CCOc2cc(OCCCN)ccc2C(=O)NC2c3ccccc3-c3ccccc32)c1`, for which, in [7], the IC50 was < 10000 nM.
Consider `CCc1cc(-c2ccc(OCC(=O)O)cc2C(C)C)ccc1-c1cccc(Cc2cccc3ccccc23)c1`, for which the 50% inhibitory concentration (IC50) against Phosphodiesterase 1 was determined as 9 nM.
As for `CCSCCCCC(c1ccc(O)cc1)C(C)(CC)c1ccc(O)cc1` (stereo not drawn), the half-inhibitory concentration (IC50) in [8] is ~9000 nM. Also, the Cell death in the test with HL-60 was >90%.
Regarding `NCCc1ccc(OCCCN=C(N)N)cc1OCCc1ccccc1`, the half-maximal inhibitory concentration (IC50) in test [7] stood at 770000 nM.
`COC(=O)N1CCN(c2ccnc(-n3ccnc3)n2)C(CC(=O)NCc2ccc3c(c2)OCO3)C1` (stereo not drawn) had an IC50 in “Inhibitory activity” of 0.6 nM. Besides, in [9], affinity was put at a Ki of 2.2 nM. For the same compound, in the test with Rattus norvegicus, the median effective dose (ED50) (in general, the midpoint of the dose-response relation) was 1.2 mg/kg.
Turning to `CC(=O)NC(Cc1ccc(P(=O)(O)O)c(P(=O)(O)O)c1)C(=O)N[C@H]1CCCCc2cc(OCC3CCCCC3)c(C(N)=O)cc21` (stereo partly drawn), the IC50 amounted to 300 nM in test [10] and 1600 nM in the test listed under Oryctolagus cuniculus.
In test [11], `NC(=O)C[C@H](NC(=O)C1(NC(=O)[C@H](Cc2ccc(C(C(=O)O)C(=O)O)cc2)NC(=O)C(=O)O)CCCCC1)C(=O)NCCCc1ccc2ccccc2c1` gave a half-inhibitory concentration (IC50) of 50 nM. The Blockade in [12] was determined as 50%.
